The values below come from patent US6407042B1 (Monsanto Technology LLC, priority 1996, dated 2002).

For assay [1], the system named is Japanese millet (Echinochloa crus-galli, ECHCF). As to the kind of experiment: Greenhouse test of herbicidal effectiveness (percent inhibition) on Japanese millet. The format is in vivo. From the text:
(§1) The herbicidal effectiveness data set forth herein report “inhibition” as a percentage following a standard procedure in the art which reflects a visual assessment of plant mortality and growth reduction by comparison with untreated plants, made by technicians specially trained to make and record such observations. In all cases, a single technician makes all assessments of percent inhibition within any one experiment or trial. Such measurements are relied upon and regularly reported by Monsanto Company in the course of its herbicide business.
(§2) The following procedure was used for testing compositions of the Examples to determine herbicidal effectiveness, except where otherwise indicated.
(§3) Seeds of the plant species indicated were planted in 85 mm square pots in a soil mix which was previously steam sterilized and prefertilized with a 14-14-14 NPK slow release fertilizer at a rate of 3.6 kg/m3. The pots were placed in a greenhouse with subirrigation. About one week after emergence, seedlings were thinned as needed, including removal of any unhealthy or abnormal plants. to create a uniform series of test pots.
(§4) The plants were maintained for the duration of the test in the greenhouse where they received a minimum of 14 hours of light per day. If natural light was insufficient to achieve the daily requirement, artificial light with an intensity of approximately 475 microeinsteins was used to make up the difference. Exposure temperatures were not precisely controlled but averaged about 27° C. during the day and about 18° C. during the night. Plants were sub-irrigated throughout the test to ensure adequate soil moisture levels.
(§5) A set of pots was left untreated as a reference against which effects of the treatments could later be evaluated.
(§6) Application of glyphosate compositions was made by spraying with a track sprayer fitted with a 9501E nozzle calibrated to deliver a spray volume of 93 liters per hectare (l/ha) at a pressure of 166 kilopascals (kPa). After treatment, pots were returned to the greenhouse until ready for evaluation.
(§7) Treatments were made using dilute aqueous compositions. These could be prepared as spray compositions directly from their ingredients, or by dilution with water of preformulated concentrate compositions.
(§8) For evaluation of herbicidal effectiveness, all plants in the test were examined by a single practiced technician, who recorded percent inhibition, a visual measurement of the effectiveness of each treatment by comparison with untreated plants.

A further assay concerns ABUTH and ECHCF. Briefly: Greenhouse test, herbicidal effectiveness overall on both species of the Example. It is filed as in vivo, Abutilon theophrasti, Echinochloa crus-galli. Particulars: post-emergence foliar spray 93 l/ha, comparison as worded in the discussion of the Example. As to the method:
The following procedure was used for testing compositions of the Examples to determine herbicidal effectiveness, except where otherwise indicated. […] The pots were placed in a greenhouse with subirrigation. About one week after emergence, seedlings were thinned as needed, including removal of any unhealthy or abnormal plants. to create a uniform series of test pots. The plants were maintained for the duration of the test in the greenhouse where they received a minimum of 14 hours of light per day. […] Exposure temperatures were not precisely controlled but averaged about 27° C. during the day and about 18° C. during the night. Plants were sub-irrigated throughout the test to ensure adequate soil moisture levels. Pots were assigned to different treatments in a fully randomized experimental design with 3 replications. A set of pots was left untreated as a reference against which effects of the treatments could later be evaluated. […] After treatment, pots were returned to the greenhouse until ready for evaluation. Treatments were made using dilute aqueous compositions. […] For evaluation of herbicidal effectiveness, all plants in the test were examined by a single practiced technician, who recorded percent inhibition, a visual measurement of the effectiveness of each treatment by comparison with untreated plants.

For assay [2], the system named is Velvetleaf (Abutilon theophrasti, ABUTH). Briefly: Greenhouse test of herbicidal effectiveness (percent inhibition) on velvetleaf. The format is in vivo.
From the text: as §1, §2, §3, §4, §5, §6, §7, §8

For assay [3], the system named is Prickly sida (Sida spinosa, SIDSP). Briefly: Greenhouse test of herbicidal effectiveness (percent inhibition) on prickly sida. As to conditions: for % Inhibition SIDSP: evaluation 10 days after application. It is filed as in vivo.
From the text: as §1, §2, §3, §4, §5, §6, §7, §8

For assay [4], the system named is Hemp sesbania (Sesbania exaltata, SEBEX). Briefly: Greenhouse test of herbicidal effectiveness (percent inhibition) on hemp sesbania. It is filed as in vivo. As to conditions: Example 18; 21 days after application.
From the text: as §2, §3
(§9) The plants were maintained for the duration of the test in the greenhouse where they received a minimum of 14 hours of light per day. […]
as §5
(§10) Application of glyphosate compositions was made by spraying with a track sprayer fitted with a 9501E nozzle calibrated to deliver a spray volume of 93 liters per hectare (l/ha) at a pressure of 166 kilopascals (kPa). After treatment, pots were returned to the greenhouse until ready for evaluation. […]
as §8

Assay [5] concerns Common lambsquarter (Chenopodium album, CHEAL). Briefly: Greenhouse test of herbicidal effectiveness (percent inhibition) on common lambsquarter. The format is in vivo. Particulars: Example 20; 18 days after application.
From the text: as §2, §3, §9, §5, §10, §8

Where [6] appears, read: dicamba rate 25 g a.i./ha, evaluation 17 days after application.
The mark [7] stands for this setting: dicamba rate 50 g a.i./ha, evaluation 17 days after application.
Where [8] appears, read: dicamba rate 100 g a.i./ha, evaluation 17 days after application.
Where [9] appears, read: dicamba rate 200 g a.i./ha, evaluation 17 days after application.
Where [10] appears, read: acifluorfen rate 25 g a.i./ha, evaluation 10 days after application.
The mark [11] stands for this setting: acifluorfen rate 50 g a.i./ha, evaluation 10 days after application.
[12] abbreviates: acifluorfen rate 100 g a.i./ha, evaluation 10 days after application.
[13] abbreviates: acifluorfen rate 200 g a.i./ha, evaluation 10 days after application.

For `COC(=O)NS(=O)(=O)c1ccc(N)cc1` [Asulam (technical)], the “% Inhibition ECHCF” value in assay [1] (asulam rate 200 g a.i./ha, evaluation 14 days after application) is on record as 12%.

On to Steareth-20, for which, in the assay on ABUTH and ECHCF, the “herbicidal effectiveness overall (ABUTH and ECHCF), result in words” value is on record as “more effective additives for Formulation B than steareth-10”.

`C[N+](C)(C)CCCNS(=O)(=O)C(F)(F)C(F)(F)C(F)(F)C(F)(F)C(F)(F)C(F)(F)C(F)(F)C(F)(F)F.[I-]` [Fluorad FC-135, 3-(((heptadecafluorooctyl)sulfonyl)amino)-N,N,N-trimethyl-1-propaminium iodide]: the “concentration of Fluorad FC-135 added in tank-mix to Formulation B to bring its herbicidal performance up to that of Formulation C” value in assay [1] (Example 21, ECHCF, evaluation 20 days after application) is on record as “approximately 0.25%”; in assay [2] (Example 21, ABUTH, evaluation 20 days after application), ~0.02%; in assay [3] (Example 21, SIDSP, evaluation 20 days after application) it was ~0.1%. Also, the optimum adjuvant concentration in assay [1] (Example 25, tank-mix adjuvant for glyphosate as Formulation B, ECHCF, 21 days after application) is 0.2%; in assay [2] (Example 25, tank-mix adjuvant for glyphosate as Formulation B, ABUTH, 21 days after application) it was 0.2%.

For the molecule `COc1c(Cl)ccc(Cl)c1C(=O)O` [Dicamba (technical)], the “% Inhibition ECHCF” value in assay [1] (setting [6]) amounted to 0%; in assay [1] (setting [7]) it was 0%; in assay [1] (setting [8]), 0%; in assay [1] (setting [9]), 5%. For the same molecule, the “% Inhibition ABUTH” value in assay [2] (setting [6]) came to 47%; in assay [2] (setting [7]), 63%; in assay [2] (setting [8]), 82%; in assay [2] (setting [9]), 93%.

`O=C(O)CNCP(=O)(O)O` [glyphosate, N-phosphonomethylglycine]: the “herbicidal activity on SEBEX, result in words” value in assay [4] was “extremely weak”. The “herbicidal activity on CHEAL, result in words” value in assay [5] is recorded as “very weak”.

With `C[n+]1ccc(-c2cc[n+](C)cc2)cc1` [Paraquat dichloride], the inhibition at 25 g/ha was found to be 83% in assay [1] (Echinochloa crus-galli, 288 h, Table 82, paraquat rate 25 g a.i./ha, evaluation 12 days after application); 50% in assay [2] (Abutilon theophrasti, 288 h, Table 82, paraquat rate 25 g a.i./ha, evaluation 12 days after application); 55% in assay [3] (Sida spinosa, 288 h, Table 82, paraquat rate 25 g a.i./ha, evaluation 12 days after application). Further, the inhibition at 50 g/ha in assay [1] (Echinochloa crus-galli, 288 h, Table 82, paraquat rate 50 g a.i./ha, evaluation 12 days after application) amounted to 78%; in assay [2] (Abutilon theophrasti, 288 h, Table 82, paraquat rate 50 g a.i./ha, evaluation 12 days after application), 57%; in assay [3] (Sida spinosa, 288 h, Table 82, paraquat rate 50 g a.i./ha, evaluation 12 days after application), 60%. Further, the inhibition at 100 g/ha in assay [1] (Echinochloa crus-galli, 288 h, Table 82, paraquat rate 100 g a.i./ha, evaluation 12 days after application) amounted to 84%; in assay [2] (Abutilon theophrasti, 288 h, Table 82, paraquat rate 100 g a.i./ha, evaluation 12 days after application) it was 73%; in assay [3] (Sida spinosa, 288 h, Table 82, paraquat rate 100 g a.i./ha, evaluation 12 days after application) it was 69%. Besides, the inhibition at 200 g/ha was found to be 95% in assay [1] (Echinochloa crus-galli, 288 h, Table 82, paraquat rate 200 g a.i./ha, evaluation 12 days after application); 85% in assay [2] (Abutilon theophrasti, 288 h, Table 82, paraquat rate 200 g a.i./ha, evaluation 12 days after application); 99% in assay [3] (Sida spinosa, 288 h, Table 82, paraquat rate 200 g a.i./ha, evaluation 12 days after application).

As to ceteareth-30, in the assay on ABUTH and ECHCF, the “herbicidal effectiveness overall (ABUTH and ECHCF), result in words” value is “more effective additives for Formulation B than steareth-10”.

Take `O=C(O)c1cc(Oc2ccc(C(F)(F)F)cc2Cl)ccc1[N+](=O)[O-]` [Acifluorfen (technical)]: the “% Inhibition ECHCF” value in assay [1] (setting [10]) is listed as 2%; in assay [1] (setting [11]) it was 7%; in assay [1] (setting [12]), 18%; in assay [1] (setting [13]), 35%. Further, the “% Inhibition ABUTH” value in assay [2] (setting [10]) is recorded as 20%; in assay [2] (setting [11]), 32%; in assay [2] (setting [12]) it was 52%; in assay [2] (setting [13]), 62%. The “% Inhibition SIDSP” value in assay [3] (acifluorfen rate 25 g a.i./ha) is on record as 15%; in assay [3] (acifluorfen rate 50 g a.i./ha), 17%; in assay [3] (acifluorfen rate 100 g a.i./ha), 35%; in assay [3] (acifluorfen rate 200 g a.i./ha), 40%.
